Assay results published in publication PMC4309801, “Angiotensin Converting Enzyme Inhibitors (ACEI) and doxorubicin pharmacokinetics in women receiving adjuvant breast cancer treatment” (SpringerPlus, 2015).
Read-outs that look alike come from different tables or passages of the source.

Legend:
[1] = Doxorubicin and doxorubicinol plasma pharmacokinetics with and without enalapril (randomized cross-over drug-drug interaction study); conditions: for Cmax: geometric mean ± standard error, 17 women; for AUC(0-∞) geometric mean ratio (90% CI) / Cmax geometric mean ratio (90% CI): with versus without enalapril
Experimental: (§1) Doxorubicin (60 mg/m^2) was administered as an IV infusion over 5–10 minutes followed by an infusion of cyclophosphamide 600 mg/m^2 over 30–60 minutes every two weeks for a total of four cycles (cumulative doxorubicin 240 mg/m^2). All subjects received aprepitant, dexamethasone and palonsetron prior to each infusion of doxorubicin. All subjects received pegfilgrastim subcutaneously 24–72 hours after doxorubicin and cyclophosphamide.
(§2) This was a randomized, cross-over, single-blinded drug-drug interaction study. All patients received one cycle of AC chemotherapy with enalapril and another cycle of AC with placebo (without enalapril). The two study cycles were consecutive. Patients were randomized to the enalapril intervention or placebo in cycle 1 with cross-over in the subsequent cycle. They began 5 mg of enalapril daily on day −6, and then increased to 10 mg daily on day −2, prior to doxorubicin administration on day 1.
(§3) Blood samples for pharmacokinetics (doxorubicin and doxorubicinol) were obtained in each subject twice (one cycle with enalapril and one with placebo). Samples were drawn at baseline (immediately prior to start of doxorubicin) and then at 0.5, 1, 2, 4, 24 and 48 hours after the end of infusion. Five milliliters of blood was collected at each sampling time and placed in an EDTA tube for doxorubicin and doxorubicinol analysis. Each sample of whole blood was immediately inverted 10 times, placed on wet ice, centrifuged at 3400 rpm for 10 minutes at 4 degrees C, plasma separated and frozen to −80 degrees C within 15 minutes of collection. Samples remained frozen at −80 degrees C until time of analysis. Samples were batched at the time of analysis.
(§4) Doxorubicin and doxorubicinol plasma concentration-time data were analyzed using noncompartmental methods (WinNonLin Professional 6.3). Area-under-the-curve (AUC) (0-∞) was estimated by the log/linear trapezoidal method as AUC (0-t*) + C(t*)/Ke where C(t*) was the last observed concentration and Ke is the terminal first order elimination rate constant. Ke was calculated as the slope of the linear portion of the log of plasma-concentration vs time curve using linear regression analysis. Cmax was at the highest observed concentration.
(§5) The chromatographic separation was performed with a Waters UPLC BEH C18, 2.1 × 50 mm, reversed phase column with a 1.7-micron particle size (Waters, Milford, MA). The mobile phase used for gradient elution consisted of (A) 5 mM ammonium acetate in water, pH 3.5 (B) methanol. […] The column temperature was maintained at 35°C. […] The collision energy was 14 eV, 12 eV and 25 eV, respectively. […] Cartridges were conditioned with 1 mL methanol followed by 1 mL DI water (18 Mohm.cm, type 1). The cartridges were loaded with the samples and centrifuged at 83 × g for 5 minutes and then washed with 1 mL distilled ionized water, centrifuged and transferred to a vacuum manifold for 5 minutes, and eluted with 1 mL methanol. The eluent was evaporated to dryness using a nitrogen evaporator (Zymark Turbo Vap LV, Hopkinton, MA) set at 37°C, and reconstituted in 100 μL of mobile phase (A:B, 45:55). Doxorubicin and doxorubicinol were obtained from Toronto Research Chemicals (Toronto, Ontario, CAN). Daunorubicin was obtained from Sigma-Aldrich (St. Louis, MO). The assays are linear in the range of 1 – 1,000 ng/mL. […] The lower limit of quantification for both analytes is 1 ng/mL.
(§6) The confidence interval is a measure of the precision of the exposure ratio estimate.

[2] = Safety / adverse events in the enalapril-doxorubicin interaction study; assay type: in vivo, women with breast cancer; conditions: enalapril 5 then 10 mg daily with doxorubicin and cyclophosphamide
From the text: The two study cycles were consecutive. […] There were no serious or grade 3 or 4 adverse events. The most commonly reported drug-related adverse event was dizziness with 33% experiencing grade 1 dizziness. No clinical cardiac events occurred.

[3] = set-up: method as in Cardinale et al. [2006]; conditions: 12 months after therapy; enalapril 20 mg daily; patients with troponin elevation; placebo 48.3%, p < 0.001; ref Cardinale et al. [2006]; cited from earlier work
[4] = female, human, in vivo
Experimental: as §1, §2, §3, §4, §5, §6

[5] = cited from earlier work; for Incidence of symptomatic heart failure: ref Singal and Iliskovic [1998], Yeh et al. [2004], Muggia and Speyer [1999]; for Incidence of asymptomatic declines in ejection fraction: up to, ref Lenihan and Cardinale [2012]
clinical = conditions: female, human, in vivo
Experimental: as §1, §2, §3, §4, §5, §6

COc1cccc2c1C(=O)c1c(O)c3c(c(O)c1C2=O)C[C@@](O)([C@@H](O)CO)C[C@@H]3O[C@H]1C[C@H](N)[C@H](O)[C@H](C)O1 [Doxorubicinol, doxorubicinol]
AUC0-∞ ([1]; with enalapril 10 mg daily, doxorubicin 60 mg/m^2 IV, plasma, Table 3 geometric mean ± standard error, text mean (standard error)): 1040 ± 80.6 ng·h/mL | Cmax ([1]; with enalapril 10 mg daily, doxorubicin 60 mg/m^2 IV, plasma): 27.81 ± 3.59 ng/mL | AUC0-∞ ([1]; with enalapril exposure, abstract, Mean (SD)): 1040 (80.6) hr*ng/ml | AUC(0-∞) geometric mean ratio (90% CI) [1]: 0.96(0.88-1.05) | Cmax geometric mean ratio (90% CI) [1]: 0.99(0.91-1.08) | AUC0-∞ ([1]; without enalapril (placebo cycle), doxorubicin 60 mg/m^2 IV, plasma, Table 3 geometric mean ± standard error, text mean (standard error)): 1056.32 ± 92.03 ng·h/mL | AUC0-∞ ([1]; without enalapril (placebo cycle), doxorubicin 60 mg/m^2 IV, plasma, Table 3 geometric mean ± standard error, text mean (standard error), listed as doxorubicinol): 1056.3 (92.0) ng-hr/mL | Cmax ([1]; without enalapril (placebo cycle), doxorubicin 60 mg/m^2 IV, plasma): 29.66 ± 4.68 ng/mL | AUC0-∞ ([1]; without enalapril, abstract, Mean (SD)): 1056.32 (92.03) hr*ng/ml

CCOC(=O)[C@H](CCc1ccccc1)N[C@@H](C)C(=O)N1CCC[C@H]1C(=O)O [Enalapril, enalapril]
Subjects with grade 1 dizziness [2]: 33% | Left ventricular ejection fraction [3]: 62.8%

COc1cccc2c1C(=O)c1c(O)c3c(c(O)c1C2=O)C[C@@](O)(C(=O)CO)C[C@@H]3O[C@H]1C[C@H](N)[C@H](O)[C@H](C)O1 [Doxorubicin]
AUC0-∞ [4]: 1167.73 (45.26) hr*ng/ml | Incidence of symptomatic heart failure ([5]; cumulative doses of 400–500 mg/m^2): 3-4% | Incidence of symptomatic heart failure ([5]; cumulative doses ≥ 600 mg/m^2): more than 30% | Incidence of asymptomatic declines in ejection fraction ([5]; higher doses): 30-35% | Incidence of asymptomatic declines in ejection fraction ([5]; moderate doses (240–400 mg/m^2)): 20-25% | AUC(0-inf) (clinical; AUC0-∞): 1190 ng·h/mL | AUC(0-inf) (clinical; iv, 60 mg/m2, AUC(0-∞)): 1640 ng·h/mL | 90% CI for Cmax geometric mean ratio ([1]; reanalysis removing the outlier Cmax (subject with body mass index 53 kg/m^2)): 0.94-1.21 | AUC(0-∞) geometric mean ratio (90% CI) [1]: 1.02(0.96-1.08) | Cmax geometric mean ratio (90% CI) [1]: 1.19(0.94-1.51)
